Values belong to the compound of their own block, whether it stands above or below them.
Assays:
Assay type in all cases: physicochemical
[1] = Dynamic vapour sorption (DVS) isothermal adsorption; conditions: relative humidity 10%-80%
Procedure: Dynamic vapour sorption (DVS) data is collected using TA Instruments Q5000 TGA, the instrument control software is Thermal Advantage and the analytical software is Universal Analysis. Usually, 1-10 mg of the specimen is placed in a platinum pan, weight changes of the specimen are recorded by TA software within the process of the relative humidity change from 10% to 80% to 10%. Depending on specific situations, different sorption and desorption procedures may be used. An isothermal adsorption curve can be generated by the procession of software.

[2] = Solubility in pure water (water added progressively until the sample completely dissolved); conditions: 25° C. (room temperature)
Procedure: Take 5 mg of the crystalline form of Afatinib dimaleate in the prior art prepared in preparation example 1 and the crystalline Form N of Afatinib monomaleate prepared in example 1 as the sample respectively, pure water was added into each sample progressively at 25° C. until the sample completely dissolved, then calculate the solubility of the sample according to the weight of the sample and water.

[3] = Hygroscopicity of prior-art forms (researches by the present inventors)

weight change of the salt within the relative humidity range of 10%-80% ([1]; listed as Preparation Example 1): 2.6%
solubility ([2]; listed as crystalline form of Afatinib dimaleate in the prior art): 7.5 mg/mL
Structure (SMILES): CN(C)C/C=C/C(=O)Nc1cc2c(Nc3ccc(F)c(Cl)c3)ncnc2cc1O[C@H]1CCOC1 [Afatinib dimaleate]

weight change of the salt within the relative humidity range of 10%-80% ([1]; listed as Example 1): 2.1%
solubility ([2]; listed as crystalline Form N of Afatinib monomaleate): 126.9 mg/mL
Structure (SMILES): CN(C)C/C=C/C(=O)Nc1cc2c(Nc3ccc(F)c(Cl)c3)ncnc2cc1O[C@H]1CCOC1 [Afatinib monomaleate]

hygroscopicity [3]: serious hygroscopicity issues
Structure (SMILES): CN(C)C/C=C/C(=O)Nc1cc2c(Nc3ccc(F)c(Cl)c3)ncnc2cc1O[C@H]1CCOC1 [Form B of Afatinib dimaleate, Afatinib dimaleate]
